In patent publication US7314726B2, “Beta secretase exosite binding peptides and methods for identifying beta secretase modulators” (Bristol-Myers Squibb Company, priority 2002, dated 2008):
Read-outs that look alike come from different tables or passages of the source.

Tests used:
BACE [1] = target: T1, BACE (Homo sapiens, UniProt P56817); test: Competitive binding assay, displacement of labeled EBP from BACE, fluorescence anisotropy; design: The cDNA for the catalytic domain of human BACE (residues 1-460) was PCR-amplified; human IgG1 heavy chain (C, cleaved yes); thrombin cleavage site (C); made in house; host or cells: CHO DG44 cells (stably transfected, secreted); conditions: displacement of Molecule X, read-out: binding constant (Kd) of unlabeled peptide by competition
T1 sequence (P56817 46-460 limits assumed): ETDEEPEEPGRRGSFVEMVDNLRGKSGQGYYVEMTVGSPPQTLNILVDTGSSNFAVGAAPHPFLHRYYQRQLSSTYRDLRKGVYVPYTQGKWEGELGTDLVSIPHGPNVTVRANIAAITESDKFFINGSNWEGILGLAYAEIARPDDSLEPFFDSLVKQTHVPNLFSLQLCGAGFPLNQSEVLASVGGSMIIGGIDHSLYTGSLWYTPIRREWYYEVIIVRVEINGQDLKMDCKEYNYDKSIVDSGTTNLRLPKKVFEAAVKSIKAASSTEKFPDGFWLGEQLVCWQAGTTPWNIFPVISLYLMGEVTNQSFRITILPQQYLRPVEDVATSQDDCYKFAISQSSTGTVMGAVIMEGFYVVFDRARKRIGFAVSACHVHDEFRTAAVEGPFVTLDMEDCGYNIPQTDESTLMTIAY
Protocol: The competitive binding assay was carried out at pH 7.1 (PBS buffer) or pH 4.5 (50 mM acetate buffer). The fluorescence anisotropy was measured at 25° C. in an AVIV fluorometer. The excitation and emission wavelengths were set to 495 and 519 nm, respectively. The excitation and emission slit widths were 4 and 10 nm, respectively.
The initial anisotropy value was measured. A concentrated unlabeled peptide or compound stock was titrated into the above solution of EBP and BACE. The final concentration of unlabeled peptide or compound ranges from 20 to 20000 nM. After each addition, the solution was mixed for 10 times with a pipettor. The fluorescence anisotropy was averaged over a 5 minute period.
The change in anisotropy was converted to fractional occupancy based on the r0 and rb obtained from the binding assay. The fractional occupancy was then plotted against the concentration of the competing peptide or compound. (see, for example, FIG. 6) The Kd of the competing ligand was calculated from curve fitting using the program […]™ (Synergy Software, Reading, Pa.). The equation used to fit the competition data is identical to equation 4 in Lai et al., (2000) Arch. Biochem. Biophys. 381:278-284.
The truncated unlabeled peptides were screened at a single concentration of 10 μM at pH 4.5. The anisotropy values detected with Molecule X in the absence of inhibitor, i.e., truncated unlabeled peptide (ra) and in the presence of the inhibitor (rb) and the labeled peptide alone (r0) were used to calculate the percent of inhibition: 100 (ra-rb)/(ra-r0). The percent of inhibition was compared among the truncated peptides.

BACE [2] = target: T1, BACE; test: Phage ELISA of phage-displayed peptides on immobilised BACE; assay type: binding; design: The cDNA for the catalytic domain of human BACE (residues 1-460) was PCR-amplified; human IgG1 heavy chain (C, cleaved yes); thrombin cleavage site (C); made in house; host or cells: CHO DG44 cells (stably transfected, secreted); conditions: clones from solid phase panning at pH 7.0
Protocol: Two highly selected and homologous 12 mer phage peptides bound BACE specifically and reproducibly in phage-ELISA tests. Bristol-Myers Squibb fUSE5-based C4C, C6C, 5- and 15 mer libraries, and M13-based C7C libraries, and 7- and 12 mer libraries obtained from New England Biolabs, Beverly, Mass. were panned for three cycles against BACE (produced as described herein in Example 3). BACE was immobilized by coating at 0.5 μg/well in 4 wells of Dynex Immulon 4HBX plates overnight at 4° C. in 0.1M NaHCO3 buffer, pH 9.0. Panning was by standard procedures at room temperature that involved blocking wells with 2% BSA in PBS and elution with 0.1M HCL, pH 2.2. The vector NTI alignment tool and visual inspection of sequences were employed to analyze the selected peptides.
After sequencing approximately 20-50 clones from each library after three cycles of selection, we prepared essentially all possible candidate clones (39 clones in total) for phage-ELISA to obtain direct evidence for affinity to BACE. […] We therefore sequenced additional 12 mer clones to try to find additional candidate clones. […] This […] (SEQ ID NO:20) peptide is homologous to […] (SEQ ID NO:19) and consistent with the specific binding of both those peptides to BACE. The […] (SEQ ID NO:20) peptide and […] (SEQ ID NO:19) peptides were the two most efficiently recovered clones with 13 and 9 copies, respectively. […]

Kd (BACE [1]; pH 4.5): 1070 nM
Kd (BACE [1]; pH 7.1): 84 nM
phage ELISA binding to BACE (BACE [2]): specifically bind to BACE
Substance: Ac-NLTTYPYFIPLP-OH [BMS-561871]
